ChEMBL document CHEMBL4411333, “Optimization of Fused Bicyclic Allosteric SHP2 Inhibitors” (J Med Chem, 2019)
The source made the active and inactive calls. No cut-off for these calls is given here.

Key:
[1] = molecular target: T1, Tyrosine-protein phosphatase non-receptor type 11 (Homo sapiens, UniProt Q06124); test: Inhibition of SHP2 in human KYSE520 cells assessed as suppression of ERK phosphorylation after 2 hrs by AlphaScreen SureFire Phospho-ERK1/2 assay; format: cell-based
T1 sequence (Q06124 whole entry): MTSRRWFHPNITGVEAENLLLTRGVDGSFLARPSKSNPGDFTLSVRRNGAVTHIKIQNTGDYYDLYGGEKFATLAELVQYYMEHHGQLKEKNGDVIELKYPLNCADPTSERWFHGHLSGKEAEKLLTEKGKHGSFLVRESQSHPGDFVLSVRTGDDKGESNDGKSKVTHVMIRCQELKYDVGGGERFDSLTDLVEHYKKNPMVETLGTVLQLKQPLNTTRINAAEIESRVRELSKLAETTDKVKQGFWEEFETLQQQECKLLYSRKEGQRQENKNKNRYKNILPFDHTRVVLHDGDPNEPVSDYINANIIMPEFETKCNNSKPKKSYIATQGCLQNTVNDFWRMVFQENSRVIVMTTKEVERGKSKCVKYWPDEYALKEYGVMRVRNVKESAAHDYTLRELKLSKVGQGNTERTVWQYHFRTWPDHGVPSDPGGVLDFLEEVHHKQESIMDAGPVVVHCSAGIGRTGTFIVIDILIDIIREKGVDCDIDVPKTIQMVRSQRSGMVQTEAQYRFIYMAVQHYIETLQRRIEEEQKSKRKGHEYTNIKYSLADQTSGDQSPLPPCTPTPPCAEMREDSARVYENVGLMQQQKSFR

[2] = molecular target: Voltage-gated inwardly rectifying potassium channel KCNH2 (Homo sapiens, UniProt Q12809)
[3] = tested on: KYSE-520 cell line; test: Antiproliferative activity against human KYSE520 cells after 5 days by Celltiter-Glo reagent-based assay; details: KYSE-520, 5 days
[4] = Volume of distribution in Sprague-Dawley rat at 1 mg/kg, iv or 5 mg/kg, po; format: ADME, organism-based; details: in vivo
[5] = Terminal half life in Sprague-Dawley rat at 1 mg/kg, iv or 5 mg/kg, po; format: ADME, organism-based; details: in vivo, read-out: beta t1/2 (converted)
[6] = Oral bioavailability in Sprague-Dawley rat at 5 mg/kg; format: ADME, organism-based; details: in vivo
[7] = species on record: Mus musculus; details: 100 mg/kg
[8] = species on record: Mus musculus; details: 100 mg/kg; remark: listed apart in the source
[9] = molecular target: T2, Tyrosine-protein phosphatase non-receptor type 11 (Homo sapiens) (UniProt Q06124); test: Inhibition of SHP2 (unknown origin) at 40 uM
T2 sequence (whole entry): T1 sequence (Q06124 whole entry)

[10] = molecular target: T2, Tyrosine-protein phosphatase non-receptor type 11 (Homo sapiens); test: Stabilization of SHP2 (unknown origin) assessed as thermal denaturation by measuring change in melting temperature at 100 uM by differential scanning fluorimetry
[11] = molecular target: T1, Tyrosine-protein phosphatase non-receptor type 11; test: Inhibition of human 6His-tagged SHP2 (2 to 593 residues) expressed in Escherichia coli BL21 Star (DE3) using DiFMUP as substrate preincubated for 30 mins followed by substrate addition by fluorescence assay
[12] = Clearance in Sprague-Dawley rat at 1 mg/kg, iv or 5 mg/kg, po relative to hepatic extraction; format: ADME, organism-based; details: in vivo
[13] = Clearance in rat liver microsomes; format: ADME, Microsome; details: read-out: CLH
[14] = Half life in rat liver microsomes; format: ADME, Microsome

Chain of Voltage-gated inwardly rectifying potassium channel KCNH2 (Q12809 whole entry): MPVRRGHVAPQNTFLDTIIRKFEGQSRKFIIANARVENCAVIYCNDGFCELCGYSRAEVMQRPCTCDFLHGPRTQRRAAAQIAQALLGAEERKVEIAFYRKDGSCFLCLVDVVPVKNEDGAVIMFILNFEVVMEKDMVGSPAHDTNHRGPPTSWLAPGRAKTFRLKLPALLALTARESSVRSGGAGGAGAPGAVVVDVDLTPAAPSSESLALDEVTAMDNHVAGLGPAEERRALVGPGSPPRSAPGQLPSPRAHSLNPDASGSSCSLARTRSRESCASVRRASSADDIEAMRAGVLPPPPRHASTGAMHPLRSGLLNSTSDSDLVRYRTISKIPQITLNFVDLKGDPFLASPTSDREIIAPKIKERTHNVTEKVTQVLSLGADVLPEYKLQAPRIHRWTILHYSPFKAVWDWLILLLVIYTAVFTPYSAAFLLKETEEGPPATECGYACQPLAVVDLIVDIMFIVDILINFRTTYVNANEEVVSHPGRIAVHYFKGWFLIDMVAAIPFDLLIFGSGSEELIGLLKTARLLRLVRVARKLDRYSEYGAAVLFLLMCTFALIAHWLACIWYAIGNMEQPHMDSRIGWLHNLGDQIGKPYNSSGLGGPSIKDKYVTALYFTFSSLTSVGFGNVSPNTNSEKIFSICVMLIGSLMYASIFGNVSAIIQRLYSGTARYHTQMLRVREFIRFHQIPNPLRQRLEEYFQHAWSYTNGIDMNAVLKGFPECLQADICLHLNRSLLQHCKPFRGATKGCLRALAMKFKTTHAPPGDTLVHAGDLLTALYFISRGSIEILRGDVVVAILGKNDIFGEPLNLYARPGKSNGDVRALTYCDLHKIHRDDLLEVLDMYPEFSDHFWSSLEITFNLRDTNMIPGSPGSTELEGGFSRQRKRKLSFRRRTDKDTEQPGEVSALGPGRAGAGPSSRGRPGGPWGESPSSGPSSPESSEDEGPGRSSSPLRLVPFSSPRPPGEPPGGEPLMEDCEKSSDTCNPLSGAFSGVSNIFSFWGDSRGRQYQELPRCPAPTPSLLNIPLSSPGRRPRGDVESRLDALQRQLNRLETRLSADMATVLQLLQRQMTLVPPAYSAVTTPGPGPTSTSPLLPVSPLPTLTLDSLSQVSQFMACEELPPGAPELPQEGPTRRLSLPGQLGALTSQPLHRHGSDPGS

SMILES	IC50 [1] [µM]	IC50 [2] [µM]	IC50 [3] [µM]	other results
C[C@@H]1OCC2(CCN(c3nc4[nH]nc(Sc5ccnc(N)c5Cl)c4c(=O)n3C)CC2)[C@@H]1N	0.096	> 30	0.72	
C[C@@H]1OCC2(CCN(c3nc4[nH]nc(-c5cccc(Cl)c5Cl)c4c(=O)n3C)CC2)[C@@H]1N			0.167	Vd [4]: 10.5 L/kg; half-life [5]: 4.6 h; bioavailability [6]: 51%; inhibition [7]: Active; inhibition [8]: Active
C[C@@H]1OCC2(CCN(c3nc4[nH]nc(-c5ccnc(Cl)c5Cl)c4c(=O)n3C)CC2)[C@@H]1N			2.6	
C[C@@H]1OCC2(CCN(c3cnc4c(-c5cccc(Cl)c5Cl)n[nH]c4n3)CC2)[C@@H]1N			0.46	
Cn1c(N2CCC(C)(CN)CC2)nc2[nH]nc(-c3cccc(Cl)c3Cl)c2c1=O			13.5	
Cc1ccc(-c2cc(C(=O)O)c3c(-c4ccc(Br)cc4)n[nH]c3n2)cc1				inhibition [9]: 30%; ΔTm [10]: 0.62 °C
CNc1nccc(-c2n[nH]c3nc(N4CCC5(CC4)CO[C@@H](C)[C@H]5N)n(C)c(=O)c23)c1Cl	0.022	> 30	0.37	IC50 [11]: 0.055 µM
Cc1nc(N)ccc1-c1n[nH]c2nc(N3CCC4(CC3)CO[C@@H](C)[C@H]4N)n(C)c(=O)c12	0.038	6.6	0.66	
C[C@@H]1OCC2(CCN(c3cnc4c(-c5cccc(Cl)c5Cl)c[nH]c4n3)CC2)[C@@H]1N	0.484	0.007		
Cn1c(N2CCC3(CCC[C@H]3N)CC2)nc2n[nH]c(-c3cccc(Cl)c3Cl)c2c1=O	0.03	0.25	0.465	IC50 [11]: 0.031 µM
CN(C)Cc1ccc(-c2cc3onc(-c4ccccc4Cl)c3c(=O)n2C)cc1				inhibition [9]: 31%; ΔTm [10]: 0.67 °C
C[C@@H]1OCC2(CCN(c3nc4[nH]nc(-c5ccnc(NC6CCC6)c5Cl)c4c(=O)n3C)CC2)[C@@H]1N	0.26	1.9	0.38	IC50 [11]: 0.35 µM
C[C@@H]1OCC2(CCN(c3nc4[nH]nc(-c5ccnc(N)c5Cl)c4c(=O)n3C)CC2)[C@@H]1N	0.103	> 30	1.2	IC50 [11]: 0.032 µM
C[C@@H]1OCC2(CCN(c3nc4[nH]nc(-c5ccnc(NC6CC6)c5Cl)c4c(=O)n3C)CC2)[C@@H]1N			0.36	CL [12]: 83%; microsomal CLint [13]: 26.1 µL/min/mg; half-life [14]: 0.887 h; Vd [4]: 3.9 L/kg; half-life [5]: 2.7 h; bioavailability [6]: 2%
Cn1c(N2CCC3(CC2)COC[C@H]3N)nc2[nH]nc(-c3cccc(Cl)c3Cl)c2c1=O	0.123		1.73	
C[C@@H]1OCC2(CCN(c3nc4[nH]nc(-c5ccncc5)c4c(=O)n3C)CC2)[C@@H]1N	0.129	> 30	1.26	
